Laboratory results published in the kinase profiling compilation of Christmann-Franck et al. (2016).

Legend:
Experiment in all cases: radiometric filter-binding kinase assay, Kinase HotSpot
Conditions in all cases: compound 0.5 µM; ATP 10 µM
[1] = biological target: KIT (human) (UniProt P10721)
[2] = biological target: BMX (human) (UniProt P51813)
[3] = biological target: CDK9 CCNT1 (human) (UniProt P50750+O60563)
[4] = biological target: NEK1 (human) (UniProt Q96PY6)
[5] = biological target: CSNK2A1 (human) (UniProt P68400)
[6] = biological target: CDK4 CCND3 (human) (UniProt P30281+P11802)
[7] = test system: PRKCQ (human), Q04759 [P330L]
[8] = biological target: MAP2K2 (human) (UniProt P36507)
[9] = biological target: MAP3K2 (human) (UniProt Q9Y2U5)
[10] = biological target: PKN1 (human) (UniProt Q16512)
[11] = biological target: LRRK2 (human) (UniProt Q5S007)
[12] = biological target: STK17A (human) (UniProt Q9UEE5)
[13] = test system: MKNK1 (human), Q9BUB5 [T385D; 165-205 del]
[14] = biological target: NEK2 (human) (UniProt P51955)
[15] = biological target: MAPK11 (human) (UniProt Q15759)
[16] = biological target: MAPK10 (human) (UniProt P53779)
[17] = biological target: MARK4 (human) (UniProt Q96L34)
[18] = test system: MAP2K6 (human), P52564 [S207E/T211E]
[19] = biological target: PKN2 (human) (UniProt Q16513)
[20] = biological target: BRSK2 (human) (UniProt Q8IWQ3)
[21] = biological target: STK11 (human) (UniProt Q15831)
[22] = biological target: INSR (human) (UniProt P06213)
[23] = biological target: HIPK3 (human) (UniProt Q9H422)
[24] = biological target: FER (human) (UniProt P16591)
[25] = biological target: STK16 (human) (UniProt O75716)
[26] = biological target: ZAP70 (human) (UniProt P43403)
[27] = biological target: PAK2 (human) (UniProt Q13177)
[28] = biological target: CDK1 CCNB1 (human) (UniProt P06493+P14635)
[29] = biological target: STK10 (human) (UniProt O94804)
[30] = biological target: FGR (human) (UniProt P09769)
[31] = biological target: TBK1 (human) (UniProt Q9UHD2)
[32] = biological target: SRPK2 (human) (UniProt P78362)
[33] = biological target: CAMK1G (human) (UniProt Q96NX5)
[34] = biological target: CDK2 CCNE1 (human) (UniProt P24941+P24864)
[35] = biological target: CAMK1 (human) (UniProt Q14012)
[36] = biological target: CAMK1D (human) (UniProt Q8IU85)
[37] = biological target: BTK (human) (UniProt Q06187)
[38] = biological target: SRC (human) (UniProt P12931)
[39] = biological target: PTK6 (human) (UniProt Q13882)
[40] = biological target: IRAK4 (human) (UniProt Q9NWZ3)
[41] = biological target: MAPK14 (human) (UniProt Q16539)

Sequence of ZAP70 (human) (P43403 whole entry, looked up): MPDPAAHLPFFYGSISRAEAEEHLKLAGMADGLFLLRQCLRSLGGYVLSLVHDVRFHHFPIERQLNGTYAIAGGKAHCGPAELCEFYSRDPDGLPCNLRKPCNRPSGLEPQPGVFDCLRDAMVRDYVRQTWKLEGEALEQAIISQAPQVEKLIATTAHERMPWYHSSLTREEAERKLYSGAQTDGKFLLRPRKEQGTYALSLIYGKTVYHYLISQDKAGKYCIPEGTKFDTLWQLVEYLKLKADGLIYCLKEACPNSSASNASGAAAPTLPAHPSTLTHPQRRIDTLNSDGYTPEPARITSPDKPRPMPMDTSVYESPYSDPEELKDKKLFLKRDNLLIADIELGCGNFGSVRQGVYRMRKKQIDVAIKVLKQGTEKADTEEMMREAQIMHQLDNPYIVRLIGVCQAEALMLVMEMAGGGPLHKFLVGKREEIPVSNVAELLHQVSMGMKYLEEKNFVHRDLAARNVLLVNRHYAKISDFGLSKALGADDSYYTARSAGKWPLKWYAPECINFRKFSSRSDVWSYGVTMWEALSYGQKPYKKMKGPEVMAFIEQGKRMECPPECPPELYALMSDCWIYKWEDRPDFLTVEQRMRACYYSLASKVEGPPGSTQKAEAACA
Sequence of PTK6 (human) (Q13882 whole entry, looked up): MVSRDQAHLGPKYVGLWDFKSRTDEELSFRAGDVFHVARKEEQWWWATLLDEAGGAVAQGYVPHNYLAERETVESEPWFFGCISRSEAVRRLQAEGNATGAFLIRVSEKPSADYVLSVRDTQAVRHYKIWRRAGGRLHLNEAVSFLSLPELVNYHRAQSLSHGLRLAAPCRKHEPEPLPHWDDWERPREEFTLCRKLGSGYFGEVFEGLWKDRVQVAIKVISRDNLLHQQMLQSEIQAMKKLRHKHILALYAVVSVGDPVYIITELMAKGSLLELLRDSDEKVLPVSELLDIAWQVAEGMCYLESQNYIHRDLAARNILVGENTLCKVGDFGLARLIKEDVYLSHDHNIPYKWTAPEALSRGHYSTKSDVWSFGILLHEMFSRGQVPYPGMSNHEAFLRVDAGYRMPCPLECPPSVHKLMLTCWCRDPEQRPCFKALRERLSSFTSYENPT
Sequence of BRSK2 (human) (Q8IWQ3 whole entry, looked up): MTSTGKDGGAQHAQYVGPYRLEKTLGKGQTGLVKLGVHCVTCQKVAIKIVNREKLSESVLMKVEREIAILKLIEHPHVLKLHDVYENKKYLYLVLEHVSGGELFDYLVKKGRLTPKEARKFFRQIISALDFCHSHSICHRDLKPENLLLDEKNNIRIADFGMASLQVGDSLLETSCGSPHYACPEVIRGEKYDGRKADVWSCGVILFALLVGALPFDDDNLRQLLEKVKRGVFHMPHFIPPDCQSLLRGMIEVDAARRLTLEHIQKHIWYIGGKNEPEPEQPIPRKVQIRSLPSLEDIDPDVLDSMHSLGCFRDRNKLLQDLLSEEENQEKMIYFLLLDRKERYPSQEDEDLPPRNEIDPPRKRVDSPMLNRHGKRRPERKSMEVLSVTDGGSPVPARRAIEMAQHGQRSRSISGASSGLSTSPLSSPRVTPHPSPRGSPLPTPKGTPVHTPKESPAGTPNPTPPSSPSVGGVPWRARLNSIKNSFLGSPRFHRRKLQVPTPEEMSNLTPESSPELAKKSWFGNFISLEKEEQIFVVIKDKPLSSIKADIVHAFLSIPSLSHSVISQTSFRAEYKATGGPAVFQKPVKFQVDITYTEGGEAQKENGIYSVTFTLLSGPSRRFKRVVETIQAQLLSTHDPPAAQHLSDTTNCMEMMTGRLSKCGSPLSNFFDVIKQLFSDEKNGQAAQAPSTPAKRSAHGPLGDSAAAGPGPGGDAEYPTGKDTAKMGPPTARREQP
Sequence of CDK1 CCNB1 (human) (P06493 whole entry, looked up): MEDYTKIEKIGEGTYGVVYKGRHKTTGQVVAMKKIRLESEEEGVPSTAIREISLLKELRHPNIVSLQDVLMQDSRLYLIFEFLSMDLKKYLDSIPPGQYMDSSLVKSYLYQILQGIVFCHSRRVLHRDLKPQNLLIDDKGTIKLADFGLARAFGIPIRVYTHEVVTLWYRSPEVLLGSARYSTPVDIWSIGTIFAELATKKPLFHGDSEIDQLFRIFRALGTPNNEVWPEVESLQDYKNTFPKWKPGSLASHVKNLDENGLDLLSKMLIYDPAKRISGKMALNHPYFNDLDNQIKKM
Sequence of CDK1 CCNB1 (human) (P14635 whole entry, looked up): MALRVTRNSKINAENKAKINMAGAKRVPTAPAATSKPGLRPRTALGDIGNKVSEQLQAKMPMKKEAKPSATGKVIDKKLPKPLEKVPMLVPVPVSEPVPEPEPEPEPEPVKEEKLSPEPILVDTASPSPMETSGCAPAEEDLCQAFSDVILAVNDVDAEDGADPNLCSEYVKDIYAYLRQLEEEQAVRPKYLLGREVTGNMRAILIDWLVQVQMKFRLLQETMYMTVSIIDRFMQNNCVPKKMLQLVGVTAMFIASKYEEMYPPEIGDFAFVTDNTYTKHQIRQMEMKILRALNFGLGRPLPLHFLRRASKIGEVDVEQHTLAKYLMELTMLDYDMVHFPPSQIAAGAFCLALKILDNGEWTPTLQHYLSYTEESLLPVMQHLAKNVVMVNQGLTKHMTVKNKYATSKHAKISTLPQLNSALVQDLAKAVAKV
Sequence of CDK9 CCNT1 (human) (O60563 whole entry, looked up): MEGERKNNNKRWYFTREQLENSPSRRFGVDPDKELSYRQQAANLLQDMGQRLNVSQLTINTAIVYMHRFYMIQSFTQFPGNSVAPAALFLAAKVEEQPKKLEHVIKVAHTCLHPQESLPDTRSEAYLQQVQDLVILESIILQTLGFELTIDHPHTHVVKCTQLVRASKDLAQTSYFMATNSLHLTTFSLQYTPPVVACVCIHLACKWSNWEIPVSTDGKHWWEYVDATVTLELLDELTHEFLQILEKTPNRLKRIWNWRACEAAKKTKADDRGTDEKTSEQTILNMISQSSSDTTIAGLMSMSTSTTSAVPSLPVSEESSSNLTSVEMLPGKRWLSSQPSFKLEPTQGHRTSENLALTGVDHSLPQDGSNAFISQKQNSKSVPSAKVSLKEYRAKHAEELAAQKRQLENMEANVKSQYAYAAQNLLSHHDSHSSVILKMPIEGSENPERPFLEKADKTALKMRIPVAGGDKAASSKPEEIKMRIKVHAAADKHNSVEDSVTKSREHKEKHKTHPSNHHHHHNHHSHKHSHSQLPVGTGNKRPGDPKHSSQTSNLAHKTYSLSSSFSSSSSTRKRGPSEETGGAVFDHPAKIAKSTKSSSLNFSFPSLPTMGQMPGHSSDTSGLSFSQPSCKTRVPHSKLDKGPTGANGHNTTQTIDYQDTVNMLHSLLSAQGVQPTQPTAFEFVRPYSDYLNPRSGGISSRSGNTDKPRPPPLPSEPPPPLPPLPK
Sequence of CDK9 CCNT1 (human) (P50750 whole entry, looked up): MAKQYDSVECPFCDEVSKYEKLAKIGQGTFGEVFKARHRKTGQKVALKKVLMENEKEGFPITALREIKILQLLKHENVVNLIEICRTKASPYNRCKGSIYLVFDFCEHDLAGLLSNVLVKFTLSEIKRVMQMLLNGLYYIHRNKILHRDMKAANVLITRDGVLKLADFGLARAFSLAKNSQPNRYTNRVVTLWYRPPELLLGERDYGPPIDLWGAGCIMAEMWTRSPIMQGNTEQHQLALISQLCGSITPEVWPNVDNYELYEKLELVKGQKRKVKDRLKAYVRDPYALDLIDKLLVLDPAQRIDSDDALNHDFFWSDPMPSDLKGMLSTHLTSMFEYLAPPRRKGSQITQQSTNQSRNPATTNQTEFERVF
Sequence of BMX (human) (P51813 whole entry, looked up): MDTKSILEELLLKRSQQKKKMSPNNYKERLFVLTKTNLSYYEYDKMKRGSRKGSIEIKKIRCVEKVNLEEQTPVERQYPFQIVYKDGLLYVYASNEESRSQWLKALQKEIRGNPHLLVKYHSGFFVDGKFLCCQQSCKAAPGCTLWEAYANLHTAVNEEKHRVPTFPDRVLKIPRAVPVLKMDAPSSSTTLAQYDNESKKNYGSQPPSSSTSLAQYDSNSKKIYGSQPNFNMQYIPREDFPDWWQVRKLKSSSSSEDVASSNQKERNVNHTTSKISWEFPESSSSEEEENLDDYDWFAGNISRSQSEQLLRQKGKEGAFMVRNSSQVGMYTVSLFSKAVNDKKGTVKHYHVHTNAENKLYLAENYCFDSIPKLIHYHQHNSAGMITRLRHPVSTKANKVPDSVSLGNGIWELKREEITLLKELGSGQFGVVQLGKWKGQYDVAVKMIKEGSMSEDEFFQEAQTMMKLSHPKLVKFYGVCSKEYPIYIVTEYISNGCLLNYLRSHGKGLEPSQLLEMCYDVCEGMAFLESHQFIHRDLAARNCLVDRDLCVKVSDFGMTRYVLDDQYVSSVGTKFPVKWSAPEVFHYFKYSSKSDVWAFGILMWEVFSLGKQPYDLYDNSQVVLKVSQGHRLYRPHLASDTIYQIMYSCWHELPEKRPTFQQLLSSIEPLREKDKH
Sequence of MAP2K6 (human), P52564 [S207E/T211E] (P52564 whole entry S207E/T211E, looked up): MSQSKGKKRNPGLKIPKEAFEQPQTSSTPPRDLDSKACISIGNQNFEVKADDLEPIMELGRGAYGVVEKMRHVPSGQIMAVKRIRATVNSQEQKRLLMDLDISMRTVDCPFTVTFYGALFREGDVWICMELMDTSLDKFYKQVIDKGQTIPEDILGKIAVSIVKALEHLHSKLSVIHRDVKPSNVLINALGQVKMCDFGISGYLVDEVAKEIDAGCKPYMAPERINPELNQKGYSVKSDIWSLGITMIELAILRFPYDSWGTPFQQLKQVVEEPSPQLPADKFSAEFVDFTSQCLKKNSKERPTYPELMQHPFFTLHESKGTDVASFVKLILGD
Sequence of STK16 (human) (O75716 whole entry, looked up): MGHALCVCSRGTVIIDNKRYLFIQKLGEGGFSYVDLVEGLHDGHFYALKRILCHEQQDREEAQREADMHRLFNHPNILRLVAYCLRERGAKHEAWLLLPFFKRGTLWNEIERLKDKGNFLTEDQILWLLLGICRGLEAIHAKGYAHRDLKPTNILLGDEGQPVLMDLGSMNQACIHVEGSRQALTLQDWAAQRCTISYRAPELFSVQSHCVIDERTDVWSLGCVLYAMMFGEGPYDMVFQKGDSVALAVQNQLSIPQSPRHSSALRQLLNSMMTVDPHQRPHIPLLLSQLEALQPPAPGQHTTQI

| SMILES | residual activity [1] [%] | residual activity [2] [%] | residual activity [3] [%] | residual activity [4] [%] | residual activity [5] [%] | residual activity [6] [%] | residual activity [7] [%] | residual activity [8] [%] | residual activity [9] [%] | residual activity [10] [%] | residual activity [11] [%] | residual activity [12] [%] | residual activity [13] [%] | residual activity [15] [%] | residual activity [16] [%] | residual activity [17] [%] | residual activity [18] [%] | residual activity [19] [%] | residual activity [20] [%] | residual activity [21] [%] | also measured |
| --- | --- | --- | --- | --- | --- | --- | --- | --- | --- | --- | --- | --- | --- | --- | --- | --- | --- | --- | --- | --- | --- |
| O=C1Nc2ccc(Br)cc2/C1=C\c1cc2c([nH]1)CCCC2 | 30.5 | 89.9 | 90 | 94.6 | 96.1 | 99.8 | 98.4 | 92.1 | 93.6 | 91.7 | 7.03 | 72.9 | 106 | 96.8 | 98.7 | 82.9 | 110 | 91.3 | 93.8 | 88.7 | residual activity [14]: 87.9%; residual activity [22]: 85.8%; residual activity [23]: 96.7%; residual activity [24]: 74.7%; residual activity [25]: 94.3%; residual activity [26]: 93.9%; residual activity [27]: 90%; residual activity [28]: 98.5%; residual activity [29]: 65.5%; residual activity [30]: 67.7%; residual activity [31]: 66.9%; residual activity [32]: 90.6%; residual activity [33]: 103%; residual activity [34]: 96%; residual activity [35]: 98.4%; residual activity [36]: 96.8%; residual activity [37]: 90.5%; residual activity [38]: 88.8%; residual activity [39]: 82.3%; residual activity [40]: 67.2% |
| O=C1C(Cl)=C(N2C(=O)CCC2=O)C(=O)c2ccccc21 | 84.7 | 103 | 101 | 90 | 99.3 | 107 | 114 | 106 | 108 | 108 | 103 | 101 | 135 | 105 | 93.6 | 99.6 | 107 | 108 | 100 | 99.8 | residual activity [14]: 88.6%; residual activity [22]: 105%; residual activity [23]: 112%; residual activity [24]: 103%; residual activity [41]: 88.1%; residual activity [25]: 100%; residual activity [26]: 93.8%; residual activity [27]: 104%; residual activity [28]: 118%; residual activity [30]: 102%; residual activity [31]: 97.9%; residual activity [32]: 100%; residual activity [33]: 98.2%; residual activity [34]: 90.3%; residual activity [35]: 98.3%; residual activity [36]: 102%; residual activity [37]: 103%; residual activity [38]: 95.1%; residual activity [39]: 94.8%; residual activity [40]: 89.1% |
| COc1ccc2c(c1)/C(=C/c1cnc[nH]1)C(O)=N2 | 84.1 | 100 | 67.4 | 84.4 | 67.8 | 49.6 | 109 | 108 | 89.6 | 87.4 | 27.9 | 42.3 | 88.4 | 103 | 105 | 37.4 | 90.1 | 90.8 | 61.7 | 51.7 | residual activity [23]: 101%; residual activity [24]: 88.4%; residual activity [41]: 97.7%; residual activity [25]: 76.2%; residual activity [26]: 92.8%; residual activity [27]: 97.7%; residual activity [28]: 35.9%; residual activity [29]: 67%; residual activity [30]: 80.4%; residual activity [31]: 70.7%; residual activity [32]: 101%; residual activity [33]: 95.6%; residual activity [35]: 103%; residual activity [36]: 98.3%; residual activity [37]: 101%; residual activity [38]: 92.1%; residual activity [39]: 87.7%; residual activity [40]: 92.2% |
